{
  "source": "patent US8465983B1",
  "about": "“Detection and delivery systems utilizing supported lipid bilayers” (priority 2005, dated 2013)",
  "key": {"[1]": {"system": "EPC lipid bilayer on porous silica beads", "assay": "Suspension study: disruption of EPC bilayers on fluorescein-containing porous silica beads, release of dye into supernatant", "format": "biochemical", "procedure": "Lipid coatings on beads were disrupted using 10% TRITON X-100 detergent. Each sample in micro-centrifuge tubes contained 5 mg of lipid bilayer coated, fluorescein entrapped beads in 200 μL of Tris buffer. Samples were centrifuged and 100 μL aliquots of supernatant were mixed with either 100 μL of Tris buffer or 100 μL of 10% TRITON X-100 detergent in separate centrifuge tubes. The fluorescence intensity of each mixture was immediately (time=0) recorded. Each mixture was mixed with its respective bead sample in centrifuge tube and incubated at 25° C. in the dark. After 30 min, samples were centrifuged and fluorescent intensity of the supernatants was measured. Beads were resuspended in their respective supernatants. Fluorescence intensity was again measured at 90 and 150 min.\nExperimental procedures were similar to the TRITON X-100 detergent based analysis. For experiments with α-toxin, three different toxin concentrations: 15, 45 and 250 μg/mL were used at 37° C. and 25° C. Beads coated with EPC were used. In the experiments with melittin, 220 μM melittin was used with beads coated with either 100% EPC, 10:90 (molar ratio) mixture of DMPG and EPC or an 80:20 mixture of DMPG and DMPC. All melittin experiments were conducted at 25° C.\nPrevious suspension studies on disruption of lipid bilayers have been performed with small unilamellar vesicles where disruption of the lipid bilayer membranes was detected by monitoring the unquenching of a highly concentrated, encapsulated dye. In the present work disruption was monitored via release of fluorescein dye from porous beads, by measuring the increase in fluorescence intensity of the supernatant at 520 nm. Beads were first suspended in Tris buffer containing the disruptor. After selected time periods, beads were sedimented by centrifuging and a portion of the supernatant was taken for the measurement. The measured portion was added back to the bead sample to permit continuous monitoring. The scattering effect that was present in vesicle based studies was minimized by measuring only the supernatant after centrifugation of the beads."}, "[2]": {"system": "DMPG lipid bilayer supported on MS-PPE", "assay": "Superquenching flow cytometric assay for disruption of DMPG lipid bilayer supported on MS-PPE", "format": "biochemical", "procedure": "Lipid bilayers were disrupted by adding TRITON X-100 detergent to the bead suspension to a final concentration of 0.25% (w/v).\nBead suspensions of 2.5×10^5 DMPG-coated MS-PPE in 200 μL of PBS were analyzed using a FACScan flow cytometer (Becton-Dickinson, Sunnyvale, Calif.) with excitation at 488 nm. Fluorescence signals were acquired on FL-1 channel (525 nm) using log amplification and analyzed with the CellQuest software. Kinetic analysis of disruption of supported lipid bilayer by melittin was performed by acquiring real-time data with continuous mixing of samples (10^6 MS-PPE in 800 μl of PBS) using a magnetic stirrer. The raw data were analyzed using IDL Query software developed by Bruce Edwards (Cancer Center, University of New Mexico, Albuquerque, N. Mex.).\nBecause an anionic lipid was used to form a lipid bilayer around MS-PPE, it was expected that MLT will disrupt the DMPG lipid bilayer by such a detergent-like action. This was tested by adding 10 μM AQS to DMPG-coated MS-PPE followed by treatment with one of the following: TRITON X-100 detergent, synthetic MLT (sMLT), or natural MLT (nMLT) and immediately reading the fluorescence by flow cytometry. […] These histograms resemble the ones reported previously for MS-PPE, without a lipid coating, in absence and in presence of AQS.\nFrom FIG. 18, the association constant (corresponding to the reciprocal of the point of half saturation) for nMLT and sMLT with DMPG were 5×10^6 M^−1 and 1.7×10^6 M^−1, respectively. […] Lower concentrations of nMLT, in comparison to sMLT, were required to disrupt the DMPG lipid bilayer. This might be attributed to the fact that nMLT contains some phospholipase A2 (PLA2) as a contaminant. PLA2 has a high affinity for anionic phospholipids, with an association constant of 0.5×10^10 M^−1 (Kim et al., Anal. Chem. 250, 109-116 (1997)), which is about 3000 fold higher than that of MLT. Although PLA2 activity requires calcium, which is not present in the experimental system, it has been reported that even upon addition of EDTA to natural MLT, PLA2 maintains its activity, probably due to formation of a tight complex with calcium with PLA2 (Dempsey, C. E. Biochim. Biophys. Acta 1990, 1031, 143-161).\nThe kinetics of disruption of supported lipid bilayer by MLT were monitored by measuring real-time changes in fluorescence intensity by flow cytometry (FIG. 19). Suspensions of 10^6 DMPG-coated MS-PPE in 800 μL of PBS were treated with AQS at a final concentration of 10 μM, then with either sMLT, TRITON X-100 detergent, or no treatment. […] Treatment with sMLT in the absence of AQS led to an increase in normalized fluorescence (FIG. 19, trace A). This can be attributed to disruption of the lipid bilayer by sMLT, and is consistent with a reversal of the slight quenching of fluorescence caused by the formation of a DMPG lipid bilayer over MS-PPE. Addition of AQS alone to DMPG-coated MS-PPE (FIG. 19, trace C) led to a 20% reduction in fluorescence as reported earlier. Addition of TRITON X-100 detergent to DMPG-coated MS-PPE after the addition of AQS (first dip in trace E, FIG. 19) caused immediate decrease in fluorescence to ˜10% of its original value (second dip in trace E, FIG. 19). In contrast, addition of sMLT, after the addition of AQS, (FIG. 19, trace D) led to a gradual reduction of fluorescence intensity to ˜20% of the original value. Although MLT forms dimers at high concentrations (Dempsey, C. E. Biochim. Biophys. Acta 1990, 1031, 143-161), it is monomeric at the concentrations used in this study. On the other hand, TRITON X-100 detergent forms micelles at the concentration used in this study."}},
  "data": [
    {"substance": "TRITON X-100", "values": [
      {"measurement": "increase in fluorescence intensity of the supernatant", "setting": "[1]; 10% TRITON X-100, first 30 min, 25° C.", "value": "more than 70 fold"},
      {"measurement": "increase in fluorescence intensity (total disruption of bilayers)", "setting": "[1]; TRITON X-100 added after 150 min exposure to α-toxin", "value": 50, "unit": "fold"},
      {"measurement": "fluorescence after disruption of the lipid bilayer, % of the original fluorescence value", "setting": "[2]; 0.25% (w/v) TRITON X-100, 10 μM AQS, Example 2", "value": "~10", "unit": "%"},
      {"measurement": "fluorescence after disruption, % of the fluorescence of DMPG-coated MS-PPE in the absence of quencher", "setting": "[2]; 0.25% (w/v) TRITON X-100, 10 μM AQS, Example 3", "value": "~18", "unit": "%"},
      {"measurement": "fluorescence intensity after addition, % of original value (real-time kinetics)", "setting": "[2]; 10^6 DMPG-coated MS-PPE in 800 μL PBS, after 10 μM AQS", "value": "~10", "unit": "%"}
    ]}
  ]
}
